# Measured values taken from ChEMBL document CHEMBL3045102, “Antibacterial, antifungal and antioxidant activity of some new water-soluble -diketones” (2013).
# Tests used:
# Assay type in all cases: functional
# Pseudomonas aeruginosa = assay: Antibacterial activity against Pseudomonas aeruginosa ATCC 27853 after 24 hr by sepctrophotometric method; settings: ATCC 27853, 24 h
# [1] = tested on: Radical scavenging activity; assay: Antioxidant activity assessed as decrease in DPPH free radical level after 20 min by DPPH assay method; design: concentration or dose not given beside the values
# Staphylococcus aureus = assay: Antibacterial activity against Staphylococcus aureus ATCC 25923 after 24 hr by spectrophotometric method; settings: ATCC 25923, 24 h
# Bacillus subtilis = assay: Antibacterial activity against Bacillus subtilis ATCC 6633 after 24 hr by spectrophotometric method; settings: ATCC 6633, 24 h
# Nakaseomyces glabratus = assay: Antifungal activity against Candida glabrata ATCC 36583 after 48 hr by turbidity based microplate metohd; settings: ATCC 36583, 48 h
# Candida albicans = assay: Antifungal activity against Candida albicans ATCC 10231 after 48 hr by turbidity based microplate metohd; settings: ATCC 10231, 48 h
# Escherichia coli = assay: Antibacterial activity against Escherichia coli ATCC 25922 after 24 hr by spectrophotometric method; settings: ATCC 25922, 24 h
SMILES,MIC (Pseudomonas aeruginosa) [µg/mL],inhibition [1] [%],MIC (Staphylococcus aureus) [µg/mL],MIC (Bacillus subtilis) [µg/mL],MIC (Nakaseomyces glabratus) [µg/mL],MIC (Candida albicans) [µg/mL],MIC (Escherichia coli) [µg/mL]
O=C(CC(=O)c1ccc(O[C@@H]2O[C@H](CO)[C@@H](O)[C@H](O)[C@H]2O)cc1O)c1cccs1,150,74.2,300,150,5000,2500,1250
O=C(CC(=O)c1cc(Cl)c(O[C@@H]2O[C@H](CO)[C@@H](O)[C@H](O)[C@H]2O)cc1O)c1ccccn1,19,85.5,150,1250,2500,150,19
O=C(CC(=O)c1ccc(O[C@@H]2O[C@H](CO)[C@@H](O)[C@H](O)[C@H]2O)cc1O)c1ccco1,5000,84.3,625,150,5000,5000,2500
OC(Cn1cncn1)(Cn1cncn1)c1ccc(F)cc1F [FLUCONAZOLE],,,,,10,10,
O=C(CC(=O)c1cc(Cl)c(O[C@@H]2O[C@H](CO)[C@@H](O)[C@H](O)[C@H]2O)cc1O)c1cccnc1,5000,79.5,5000,300,10000,10000,5000
O=C1O[C@H]([C@@H](O)CO)C(O)=C1O,,98,,,,,
CC1(C)S[C@@H]2[C@H](NC(=O)[C@H](N)c3ccccc3)C(=O)N2[C@H]1C(=O)O [AMPICILLIN],5,,19,5,,,10
O=C(CC(=O)c1ccc(O[C@@H]2O[C@H](CO)[C@@H](O)[C@H](O)[C@H]2O)cc1O)c1cccnc1,1250,74.2,150,625,5000,10000,300
O=C(CC(=O)c1cc(Cl)c(O[C@@H]2O[C@H](CO)[C@@H](O)[C@H](O)[C@H]2O)cc1O)c1ccco1,19,77,150,300,5000,2500,70
O=C(CC(=O)c1cc(Cl)c(O[C@@H]2O[C@H](CO)[C@@H](O)[C@H](O)[C@H]2O)cc1O)c1cccs1,30,81.2,300,625,150,5000,5000
O=C(CC(=O)c1ccc(O[C@@H]2O[C@H](CO)[C@@H](O)[C@H](O)[C@H]2O)cc1O)c1ccccn1,19,79,150,300,5000,2500,70
